Measurements from BindingDB's records for doi:10.1111/j.1471-4159.1989.tb07357.x (Albany Medical College, 1989).
pKi: −log10 of the molar value.

Experiments:
[1] = molecular target: 5-hydroxytryptamine receptor 1E (Homo sapiens, UniProt P28566)
[2] = molecular target: 5-hydroxytryptamine 1D receptor (Bos taurus, UniProt Q8MI13)
Chain of 5-hydroxytryptamine 1D receptor (Q8MI13 whole entry): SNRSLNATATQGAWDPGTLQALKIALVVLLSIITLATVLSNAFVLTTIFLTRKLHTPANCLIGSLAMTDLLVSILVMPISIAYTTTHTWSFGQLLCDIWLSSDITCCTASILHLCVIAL

Chain of 5-hydroxytryptamine receptor 1E (P28566 whole entry): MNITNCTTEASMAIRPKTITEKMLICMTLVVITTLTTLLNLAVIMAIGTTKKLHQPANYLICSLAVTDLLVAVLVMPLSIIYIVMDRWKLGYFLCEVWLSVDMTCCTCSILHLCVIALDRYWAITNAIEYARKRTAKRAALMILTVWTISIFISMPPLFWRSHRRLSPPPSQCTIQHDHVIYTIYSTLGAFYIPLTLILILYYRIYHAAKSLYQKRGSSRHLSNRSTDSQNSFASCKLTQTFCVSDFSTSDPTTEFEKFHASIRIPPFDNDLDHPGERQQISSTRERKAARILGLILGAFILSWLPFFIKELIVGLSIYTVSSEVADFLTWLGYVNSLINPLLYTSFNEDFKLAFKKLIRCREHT

Row | Compound | pKi [1] | pKi [2]
1 | CCCN(CCC)C1CCc2cccc(O)c2C1 (stereo not given) | 6.08 | 6.70
2 | CN1C2CCC1CC(OC(=O)c1c[nH]c3ccccc13)C2 (stereo not given) | < 5.00 | < 5.00
3 | CC[C@@H](CO)NC(=O)[C@@H]1C=C2c3cccc4c3c(cn4C)C[C@H]2N(C)C1 | 7.23 | 8.06
4 | COc1cc(CC(C)N)c(OC)cc1Br (stereo not drawn) [2-(4-Bromo-2,5-dimethoxy-phenyl)-1-methyl-ethylamine((-)-DOB)] | 6.25 | 6.00
5 | O=C(c1ccc(F)cc1)C1CCN(CCn2c(=O)[nH]c3ccccc3c2=O)CC1 [3-(2-{4-[(4-fluorophenyl)carbonyl]piperidin-1-yl}ethyl)-1,2,3,4-tetrahydroquinazoline-2,4-dione] | < 5.00 | 5.49
6 | CN1C[C@H](C(=O)N[C@]2(C)O[C@@]3(O)[C@@H]4CCCN4C(=O)[C@H](Cc4ccccc4)N3C2=O)C=C2c3cccc4[nH]cc(c34)C[C@H]21 [12'-hydroxy-2'-methyl-5'alpha-(phenylmethyl)ergotaman-3',6',18-trione] | 6.81 | –
7 | FC(F)(F)c1cccc(N2CCNCC2)c1 [TFMPP] | 6.24 | 6.82
8 | NCCc1c[nH]c2ccc(O)cc12 [[3H]-5-HT] | – | 8.72
9 | NCCc1c[nH]c2ccc(C(N)=O)cc12 [[3H]-5-carboxamidotryptamine] | 6.04 | –
